Experimental data published in article PMC4667271, “Discovery of a Novel Inhibitor of the Protein Tyrosine Phosphatase Shp2” (Scientific Reports, 2015).

Key:
[1] = tested on: ERK1/2 activation in HEK293T cells expressing H-RasV12; experiment: RasV12-induced ERK1/2 activation in transfected HEK293T; format: cell-based, human; conditions: Fumos 20 μM or U0126 10 μM, 24 h
Description: DMSO treatment as control. […] (c) Fumos inhibits EGF-induced Ras activation.
HEK293T, MDA-MB-231and HeLa cell lines were obtained from CRC/PUMC. Cell lines were maintained in Dulbecco’s modified Eagle’s medium supplemented with 10% fetal bovine serum. Transfections were performed in 6-well plates according to manufacturer (Invitrogen Lipofectamine LTX).Briefly, for transient transfection of HEK293T cells, subconfluent cells in 6-well plates were incubated with 2 ml of Dulbecco’s modified Eagle’s medium containing 2.5 μg of total DNA and 7.5 μl of each Lipofectamine and Plus reagent (Invitrogen) and then serum-starved in DMEM/0.1% bovine serum albumin for 18 h. After Fumos treatment for 24 h, cells were stimulated for 5 min with 20 ng/ml EGF.
After centrifugation, the supernatant was collected.

[2] = target: T1, Shp2 PTP domain (Homo sapiens, UniProt Q06124); experiment: in vitro PTP assay (pNPP), Shp2 PTP domain; format: biochemical; conditions: Shp2 PTP domain; pNPP; mean ± S.E.M., triplicate; read-out: IC50
T1 sequence (Q06124 247-517 limits assumed): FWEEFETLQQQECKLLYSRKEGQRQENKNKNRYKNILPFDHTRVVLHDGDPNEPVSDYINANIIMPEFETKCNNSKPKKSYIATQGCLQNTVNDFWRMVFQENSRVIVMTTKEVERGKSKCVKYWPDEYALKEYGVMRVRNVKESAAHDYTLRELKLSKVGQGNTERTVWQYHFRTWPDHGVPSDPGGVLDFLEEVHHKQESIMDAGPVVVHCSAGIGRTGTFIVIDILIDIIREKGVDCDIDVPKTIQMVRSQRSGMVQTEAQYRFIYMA
Description: (§1) Plasmids for expression of His-tag fusion proteins of human PTP were constructed in PET-28a by PCR subcloning techniques. The constructions contain only the PTP domain except Full-length Shp2. Full-length Shp2 containing Tyr279-to-Ala mutant was generated by PCR-based mutagenesis. All constructs were verified by DNA sequencing. PTP-His fusion proteins were expressed in Escherichia coli BL21 and lysed in the buffer (50 mM NaH2PO4, 300 mM NaCl, 250 mM imidazole, 1 mM dithiothreitol plus 5% glycerol), purified with Ni-NTA Magnetic Agarose Beads (Qiagen). The His-tag recombinant purification protocol was carried out according to the purification under native conditions of the QIAexpress System.
(§2) The assay was set in wells of 96-well plate with a final volume of 100 μl of reaction mixture containing 10 mM of NaAc-HAc, 1 mM of ethylene diamine tetraacetic acid, 1 mM of DL-dithiothreitol and 2% of dimethyl sulfoxide, pH 5.5. Activity of the enzyme was assayed by incubating recombinant PTP protein or mutant PTP with various concentrations of Fumos in the mixture at 37 °C for 30 min. Absorbance at 405 nm was detected immediately after addition of varied concentrations of substrate, p-nitrophenyl phosphate (pNPP) to each corresponding well.

[3] = target: T2, full-length Shp2 (Shp2 FL) (Homo sapiens, UniProt Q06124); experiment: in vitro PTP assay (pNPP), full-length Shp2; format: biochemical; conditions: full-length Shp2 (Shp2 FL)
T2 sequence (Q06124 1-593): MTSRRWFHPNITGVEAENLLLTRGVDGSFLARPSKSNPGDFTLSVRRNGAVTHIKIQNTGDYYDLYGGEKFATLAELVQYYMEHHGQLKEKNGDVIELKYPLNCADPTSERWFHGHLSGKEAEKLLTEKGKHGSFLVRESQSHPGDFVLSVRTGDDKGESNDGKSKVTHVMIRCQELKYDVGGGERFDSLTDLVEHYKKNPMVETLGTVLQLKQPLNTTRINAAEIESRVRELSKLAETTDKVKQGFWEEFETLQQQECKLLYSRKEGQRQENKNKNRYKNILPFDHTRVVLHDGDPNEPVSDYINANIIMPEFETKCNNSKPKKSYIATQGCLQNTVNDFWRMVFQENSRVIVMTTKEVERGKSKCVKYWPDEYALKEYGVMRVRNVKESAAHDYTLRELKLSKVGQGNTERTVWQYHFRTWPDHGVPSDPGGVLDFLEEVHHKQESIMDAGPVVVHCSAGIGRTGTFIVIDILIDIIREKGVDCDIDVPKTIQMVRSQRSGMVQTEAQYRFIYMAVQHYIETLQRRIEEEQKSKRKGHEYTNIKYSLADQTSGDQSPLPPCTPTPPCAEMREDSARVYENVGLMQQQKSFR
Description: as §1, §2

IC50 [2] [µM]	IC50 [3] [µM]	SMILES	RasV12-induced ERK1/2 activation [1]
		N#CC(=C(/N)Sc1ccccc1N)/C(C#N)=C(/N)Sc1ccccc1N [U0126, reference compound]	blocked ERK1/2 phosphorylation
620	630	[Na+].[Na+].[Na+].[O]=[V]([O-])([O-])[O-] [sodium orthovanadate, reference compound]	
